Our source for the IC50 values is paper PMC7180134 (Angewandte Chemie (International ed. in English), 2020).

Structures are written as SMILES.

The target in this assay is T1, human NTH1 (hNTH1, endonuclease III-like protein 1) (Homo sapiens, UniProt P78549).
T1 sequence (P78549 23-304): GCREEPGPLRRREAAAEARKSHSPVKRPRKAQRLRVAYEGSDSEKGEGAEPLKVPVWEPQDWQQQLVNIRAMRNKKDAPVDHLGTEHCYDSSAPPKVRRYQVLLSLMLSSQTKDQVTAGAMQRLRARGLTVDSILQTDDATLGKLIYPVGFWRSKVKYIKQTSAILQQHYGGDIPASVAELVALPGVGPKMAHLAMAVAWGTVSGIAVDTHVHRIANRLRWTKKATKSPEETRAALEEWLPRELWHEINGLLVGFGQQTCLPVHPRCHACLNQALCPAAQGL
It counts as biochemical.

In turn, `Nc1ncnc2c1c(-c1cccc(OCc3ccccc3)c1)cn2[C@H]1C[C@@H](CN2CCC2)C1` [NVP-AEW541] registered an IC50 of 780 nM.
